Entries after “also recorded” stand apart in the source; their conditions may differ.
Legend:
αS oligomers = target: T1, αS oligomers (Homo sapiens, UniProt P37840); assay: Gel shift assay of αS supernatant (oligomers); format: biochemical; conditions: 70 µM αS, 0.1, 0.2, 0.5 mol eq. ligand, 7 days
T1 construct: made in house; host or cells: Escherichia coli BL21(DE3), periplasm
Description: Supplementary Fig. 8. Gel-shift images of αS (70 µM) incubated in the absence (lane 2) and presence of SK-129 (a) and EGCG (b) at sub-stoichiometric ratios (0.1, 0.2, 0.5 mol eq.) for 7 days at 370C with constant shaking. The solutions of αS in the absence and presence of ligands were centrifuged and the supernatant was used for the gel shift assay. The arrows indicate the formation of various αS structures. The gel shift assay of the supernatant of the αS aggregated […]
fibers. Most of the αS was found in the supernatant as a mo nomer and a dimer in the presence of […]
their formation. The gel experiments were conducted at least two times to confirm the reproducibility of the data.
(1 picture or pasted object on this page, not shown here)

αS = target: T2, αS (Homo sapiens, UniProt P37840); assay: Fluorescence polarization titration, SK-129F with WT αS; format: binding
T2 construct: made in house; host or cells: Escherichia coli BL21(DE3), periplasm
Description: All Fluorescence Polarization (FP) experiments were conducted on a Varian Cary Eclipse fluorometer (Agilent, Santa Clara, CA) equipped with a polarizer. The stock solutions of αS, 1 mM or 100 μM in 1x PBS buffer, were serially added into a solution of 10 μM SK-129F (300 μL in 1x PBS buffer) while stirring in a quartz cuvette (Fireflysci, Staten Island, NY). All FP measurements were conducted in triplicates in 20 mM Tris, 100 mM NaCl, pH 7.2 at 20 °C. The excitation and emissions wavelengths were set at 490 nm and 520 nm, respectively. Each titration was equilibrated for five min before measurements were taken for the next addition of αS solution. The addition of αS solution was continuous until no more change in the FP signal was observed. Similar conditions were used for the titration of various αS mutants and Aβ42 peptide against SK-129F. A stock solution of Aβ42 (1 mM or 100 μM in 1x PBS buffer on ice) was sequentially added to a solution of 10 μM SK-129F (300 μL in 1x PBS buffer) until no more change in the FP signal was observed. The polarization of each point was calculated using Eq. 1:1 FP=I∥−I⊥/I∥+I⊥ Where I∥ is fluorescence intensity parallel to the excitation plane and I⊥ is fluorescence intensity perpendicular to the excitation plane. The plot between the relative change in the FP signal against the concentration of the protein (αS/ Aβ42) was fit using one site binding model and Kd between SK-129F and αS (αS mutants/Aβ42) was extracted from the fit. For displacement titration, a 10 μM SK-129F solution was saturated with 10 mole equivalents of αS (300 μL in 1x PBS buffer). To this solution, a stock solution of SK-129 (1 mM or 10 mM) was serially added to displace SK-129F from the αS-SK-129F complex. The solution of SK-129 was continuously added until no more change in the FP signal was observed. A plot between the relative change in the FP signal against the concentration of SK-129 was fit using a one-site competitive binding model and Kd between SK-129 and αS was extracted from the fit.

αS1 = target: T3, αS1 (Homo sapiens, UniProt P37840, DEL6-12); assay: Fluorescence polarization titration, SK-129F with αS1; format: binding; conditions: FP
T3 construct: made in house; host or cells: Escherichia coli BL21(DE3), periplasm
Description: (§1) All Fluorescence Polarization (FP) experiments were conducted on a Varian Cary Eclipse fluorometer (Agilent, Santa Clara, CA) equipped with a polarizer. The stock solutions of αS, 1 mM or 100 μM in 1x PBS buffer, were serially added into a solution of 10 μM SK-129F (300 μL in 1x PBS buffer) while stirring in a quartz cuvette (Fireflysci, Staten Island, NY). All FP measurements were conducted in triplicates in 20 mM Tris, 100 mM NaCl, pH 7.2 at 20 °C. The excitation and emissions wavelengths were set at 490 nm and 520 nm, respectively. Each titration was equilibrated for five min before measurements were taken for the next addition of αS solution. The addition of αS solution was continuous until no more change in the FP signal was observed. Similar conditions were used for the titration of various αS mutants and Aβ42 peptide against SK-129F. A stock solution of Aβ42 (1 mM or 100 μM in 1x PBS buffer on ice) was sequentially added to a solution of 10 μM SK-129F (300 μL in 1x PBS buffer) until no more change in the FP signal was observed. The polarization of each point was calculated using Eq. 1:1 FP=I∥−I⊥/I∥+I⊥ Where I∥ is fluorescence intensity parallel to the excitation plane and I⊥ is fluorescence intensity perpendicular to the excitation plane. […]

αS2 = target: T4, αS2 (Homo sapiens, UniProt P37840, DEL15-23); assay: Fluorescence polarization titration, SK-129F with αS2; format: binding; conditions: FP
T4 construct: made in house
Description: as §1

αS3 = target: T5, αS3 (Homo sapiens, UniProt P37840, DEL36-45); assay: Fluorescence polarization titration, SK-129F with αS3; format: binding; conditions: FP
T5 construct: Synuclein Residues (1-140); made in house
Description: as §1

αS4 = assay: Fluorescence polarization titration, SK-129F with αS4; format: binding; conditions: FP
Description: as §1

Row | Kd (αS; FP fit, WT αS, trial 1) [nM] | Kd (αS; FP fit, WT αS, trial 2) [nM] | Kd (αS; FP fit, WT αS, trial 3) [nM] | Kd (αS; FP titration, 10 μM SK-129F with αS, mean ± s.d., n = 3) [nM] | binding affinity weaker than WT αS (αS1) | binding affinity weaker than WT αS (αS2) | binding affinity weaker than WT αS (αS3) | binding affinity weaker than WT αS (αS4) [fold] | SMILES | αS species in gel shift assay (αS oligomers)
1 |  |  |  |  |  |  |  |  | O=C(O[C@@H]1Cc2c(O)cc(O)cc2O[C@@H]1c1cc(O)c(O)c(O)c1)c1cc(O)c(O)c(O)c1 [EGCG, Epigallocatechin Gallate] | higher-order toxic oligomers; also recorded: higher-order oligomers were observed
2 | 864 | 791 | 758 | 810 ± 90 | 3–4 fold | 3–4 fold | ~ 8 fold | > 10 | COC(=O)c1cc(OCC(=O)O)c2cccc(NC(=O)c3cc(OC(C)C)c4cccc(NC(=O)c5cc(OCC(=O)O)c6cccc(NC(=O)c7cc(OC(C)C)c8cccc(NC(=S)NCC(=O)Nc9ccc(-c%10c%11ccc(=O)cc-%11oc%11cc(O)ccc%10%11)c(C(=O)O)c9)c8n7)c6n5)c4n3)c2n1 [SK-129F] | 

From publication PMC9046208, “Foldamers reveal and validate therapeutic targets associated with toxic α-synuclein self-assembly” (Nature Communications, 2022)
